According to article PMC8445441, “Elucidating the mechanism by which synthetic helper peptides sensitize Pseudomonas aeruginosa to multiple antibiotics” (PLoS Pathogens, 2021):
Where “and” joins values, the source holds several entries; their conditions need not be identical. Equal values may be shown once. Read-outs that look alike come from different tables or passages of the source. Blank lines part the entries; values can stand above or below the molecule they belong to.

Key:
[1] = test system: clinical P. aeruginosa isolates; assay: microbe, parasite or virus in culture; conditions: antibiotic alone; for MIC: Pseudomonas aeruginosa, 18 h
How it was run: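 Broth microdilution per CLSI in MHB, two-fold drug dilutions mixed with an equal volume of bacteria at about 1 × 10^6 CFU/mL. After 18 h at 37 °C, MIC taken as the lowest concentration with no visible growth; run in triplicate.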

P. aeruginosa AUMC-Pa-3 = assay: microbe, parasite or virus in culture; conditions: strain AUMC-Pa-3; for MICac: MIC of the antibiotic in the combination: with D-11 at MICbc 4
How it was run: (§1)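 MICs were determined by CLSI broth microdilution in MHB, in triplicate: two-fold drug dilutions were mixed 1:1 with bacterial suspension of ~1 × 10^6 CFU/mL and incubated 18 h at 37 °C. The MIC was the lowest concentration with no visible growth.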

P. aeruginosa AUMC-Pa-4 = assay: microbe, parasite or virus in culture; conditions: strain AUMC-Pa-4; for MICa: MIC of the antibiotic: antibiotic alone; for MICa: MIC of the antibiotic / MICac: MIC of the antibiotic in the combination: unit not given; for MICac: MIC of the antibiotic in the combination: with D-11 at MICbc 4
How it was run: as §1

P. aeruginosa AUMC-Pa-6 = assay: microbe, parasite or virus in culture; conditions: strain AUMC-Pa-6; for MICa: MIC of the antibiotic: antibiotic alone; for MICa: MIC of the antibiotic / MICac: MIC of the antibiotic in the combination: unit not given; for MICac: MIC of the antibiotic in the combination: with D-11 at MICbc 4
How it was run: as §1

P. aeruginosa PAO1 = assay: microbe, parasite or virus in culture; conditions: PAO1
How it was run: as §1

P. aeruginosa AUMC-Pa-5 = assay: microbe, parasite or virus in culture; conditions: strain AUMC-Pa-5; for MICa: MIC of the antibiotic: antibiotic alone; for MICa: MIC of the antibiotic / MICac: MIC of the antibiotic in the combination: unit not given; for MICac: MIC of the antibiotic in the combination: with D-11 at MICbc 4
How it was run: as §1

P. aeruginosa HM-214 = test system: P. aeruginosa HM-214; parameters: MICa: MIC of the antibiotic / MICac: MIC of the antibiotic in the combination: unit not given beside the values; conditions: strain HM-214
How it was run: as §1

P. aeruginosa NR-31041 = assay: microbe, parasite or virus in culture; parameters: MICa: MIC of the antibiotic / MICac: MIC of the antibiotic in the combination: unit not given beside the values
How it was run: as §1

P. aeruginosa PAK = assay: microbe, parasite or virus in culture; parameters: MICa: MIC of the antibiotic / MICac: MIC of the antibiotic in the combination: unit not given beside the values; conditions: strain PAK; for MICa: MIC of the antibiotic: antibiotic alone; for MICa: MIC of the antibiotic / MICac: MIC of the antibiotic in the combination: unit not given; for MICac: MIC of the antibiotic in the combination: with D-11 at MICbc 4
How it was run: as §1

P. aeruginosa ATCC27853 = assay: microbe, parasite or virus in culture; parameters: MICa: MIC of the antibiotic / MICac: MIC of the antibiotic in the combination: unit not given beside the values; conditions: strain ATCC27853; for FICI: antibiotic + D-11 (MICb/MICbc 32/4); for MICa: MIC of the antibiotic: antibiotic alone; for MICa: MIC of the antibiotic / MICac: MIC of the antibiotic in the combination: unit not given; for MICac: MIC of the antibiotic in the combination: with D-11 at MICbc 4
How it was run: as §1

P. aeruginosa PA14 = assay: microbe, parasite or virus in culture; parameters: MICa: MIC of the antibiotic / MICac: MIC of the antibiotic in the combination: unit not given beside the values; conditions: strain PA14; for MICa: MIC of the antibiotic: antibiotic alone; for MICa: MIC of the antibiotic / MICac: MIC of the antibiotic in the combination: unit not given; for MICac: MIC of the antibiotic in the combination: with D-11 at MICbc 4
How it was run: as §1

P. aeruginosa NR-31040 = assay: microbe, parasite or virus in culture; parameters: MICa: MIC of the antibiotic / MICac: MIC of the antibiotic in the combination: unit not given beside the values; conditions: for MICac: MIC of the antibiotic in the combination: with D-11 at MICbc 4
How it was run: as §1

P. aeruginosa AUMC-Pa-1 = conditions: strain AUMC-Pa-1
How it was run: as §1

P. aeruginosa AUMC-Pa-2 = conditions: strain AUMC-Pa-2
How it was run: as §1

[2] = antibiotic + D-11 (MICb/MICbc 128/4)
[3] = antibiotic alone, unit not given
[4] = antibiotic + D-11 (MICb/MICbc 64/4)
[5] = strain NR-31040, unit not given
[6] = with D-11 at MICbc 4, unit not given

- MIC ([1]; read-out: Antibiotic sensibility (MIC) of clinical P. aeruginosa isolate AUMC-Pa-1, strain AUMC-Pa-1): 8 µM
- MIC ([1]; read-out: Antibiotic sensibility (MIC) of clinical P. aeruginosa isolate AUMC-Pa-2, strain AUMC-Pa-2): 2 µM
- MIC ([1]; read-out: Antibiotic sensibility (MIC) of clinical P. aeruginosa isolate AUMC-Pa-3, strain AUMC-Pa-3): 4 µM
- MIC ([1]; read-out: Antibiotic sensibility (MIC) of clinical P. aeruginosa isolate AUMC-Pa-4, strain AUMC-Pa-4): 8 µM
- MIC ([1]; read-out: Antibiotic sensibility (MIC) of clinical P. aeruginosa isolate AUMC-Pa-5, strain AUMC-Pa-5): 8 µM
- MIC ([1]; read-out: Antibiotic sensibility (MIC) of clinical P. aeruginosa isolate AUMC-Pa-6, strain AUMC-Pa-6): 8 µM
- MIC ([1]; read-out: Antibiotic sensibility (MIC) of clinical P. aeruginosa isolate HM-214, strain HM-214): 4 µM
- MIC ([1]; read-out: Antibiotic sensibility (MIC) of clinical P. aeruginosa isolate NR-31040, strain NR-31040): 8 µM
- MIC ([1]; read-out: Antibiotic sensibility (MIC) of clinical P. aeruginosa isolate NR-31041, strain NR-31041): 8 µM
- MICa: MIC of the antibiotic (P. aeruginosa AUMC-Pa-3; [3]): 4
- MICac: MIC of the antibiotic in the combination (P. aeruginosa AUMC-Pa-3; unit not given): 1
- MICa: MIC of the antibiotic (P. aeruginosa AUMC-Pa-4): 8
- MICac: MIC of the antibiotic in the combination (P. aeruginosa AUMC-Pa-4): 2
- MICa: MIC of the antibiotic (P. aeruginosa AUMC-Pa-6): 8
- MICac: MIC of the antibiotic in the combination (P. aeruginosa AUMC-Pa-6): 2
- MICac: the MIC for the antibiotic in the combination (P. aeruginosa PAO1; S3 Table, with 2 μM D-11): 1 µM
- MICac: the MIC for the antibiotic in the combination (P. aeruginosa PAO1; S3 Table, with 4 μM D-11): 1 µM
- MICa: the MIC of antibiotics (P. aeruginosa PAO1; S3 Table, antibiotic alone): 4 µM
- MICa: MIC of the antibiotic (P. aeruginosa AUMC-Pa-5): 8/8
- MICac: MIC of the antibiotic in the combination (P. aeruginosa AUMC-Pa-5): 8/8
- MIC (P. aeruginosa NR-31041; Pseudomonas aeruginosa, NR31041, 18 h, read-out: MICa: MIC of the antibiotic): 8.1 µM
- MICa: MIC of the antibiotic (P. aeruginosa PAK): 4
- MICac: MIC of the antibiotic in the combination (P. aeruginosa PAK): 1
- MICa: MIC of the antibiotic (P. aeruginosa ATCC27853): 4
- MICac: MIC of the antibiotic in the combination (P. aeruginosa ATCC27853): 1
- MICa: MIC of the antibiotic (P. aeruginosa PA14): 4
- MICac: MIC of the antibiotic in the combination (P. aeruginosa PA14): 1
- MIC (P. aeruginosa NR-31040; Pseudomonas aeruginosa, NR31040, 18 h, read-out: MICa: MIC of the antibiotic): 8 µM
- MICac: MIC of the antibiotic in the combination (P. aeruginosa NR-31040; [5]): 0.5
Molecule: CN(C)c1cc(NC(=O)CNC(C)(C)C)c(O)c2c1C[C@H]1C[C@H]3[C@H](N(C)C)C(O)=C(C(N)=O)C(=O)[C@@]3(O)C(O)=C1C2=O [Tigecycline]
- FICI (P. aeruginosa AUMC-Pa-3; [2]): 0.281
- FICI (P. aeruginosa AUMC-Pa-4; [2]): 0.281
- FICI (P. aeruginosa AUMC-Pa-6; [4]): 0.313
- FICI (P. aeruginosa PAO1; S3 Table, antibiotic + 2 μM D-11): 0.313
- FICI (P. aeruginosa PAO1; S3 Table, antibiotic + 4 μM D-11): 0.375
- FICI (P. aeruginosa AUMC-Pa-5; [4]): 1.063
- FICI (P. aeruginosa HM-214; [2]): 0.281
- FICI (P. aeruginosa NR-31041; strain NR-31041, antibiotic + D-11 (MICb/MICbc 64/4)): 0.188
- FICI (P. aeruginosa PAK; [4]): 0.313
- FICI (P. aeruginosa ATCC27853): 0.375
- FICI (P. aeruginosa PA14; [2]): 0.281
- FICI (P. aeruginosa NR-31040; strain NR-31040, antibiotic + D-11 (MICb/MICbc 128/4)): 0.094
- FICI (P. aeruginosa AUMC-Pa-1; [2]): 0.281
- FICI (P. aeruginosa AUMC-Pa-2; [4]): 0.563

- Antibiotic sensibility (MIC) of clinical P. aeruginosa isolate AUMC-Pa-1 ([1]; strain AUMC-Pa-1): >128 µM
- Antibiotic sensibility (MIC) of clinical P. aeruginosa isolate AUMC-Pa-2 ([1]; strain AUMC-Pa-2): >128 µM
- Antibiotic sensibility (MIC) of clinical P. aeruginosa isolate AUMC-Pa-3 ([1]; strain AUMC-Pa-3): >128 µM
- Antibiotic sensibility (MIC) of clinical P. aeruginosa isolate AUMC-Pa-4 ([1]; strain AUMC-Pa-4): >128 µM
- Antibiotic sensibility (MIC) of clinical P. aeruginosa isolate AUMC-Pa-5 ([1]; strain AUMC-Pa-5): >128 µM
- Antibiotic sensibility (MIC) of clinical P. aeruginosa isolate AUMC-Pa-6 ([1]; strain AUMC-Pa-6): >128 µM
- Antibiotic sensibility (MIC) of clinical P. aeruginosa isolate HM-214 ([1]; strain HM-214): >128 µM
- Antibiotic sensibility (MIC) of clinical P. aeruginosa isolate NR-31040 ([1]; strain NR-31040): >128 µM
- Antibiotic sensibility (MIC) of clinical P. aeruginosa isolate NR-31041 ([1]; strain NR-31041): >128 µM
- MICac: MIC of the antibiotic in the combination (P. aeruginosa AUMC-Pa-3; unit not given): 64
- MICa: MIC of the antibiotic (P. aeruginosa AUMC-Pa-4): >128/>128
- MICac: MIC of the antibiotic in the combination (P. aeruginosa AUMC-Pa-4): >128/>128
- MICa: MIC of the antibiotic (P. aeruginosa AUMC-Pa-6): >128/128
- MICac: MIC of the antibiotic in the combination (P. aeruginosa AUMC-Pa-6): >128/128
- MIC of spiramycin alone (P. aeruginosa PAO1): higher than 128 μM
- MICa: the MIC of antibiotics (P. aeruginosa PAO1; S1 Table, macrolide alone): >128/>128 μM and >128/128 μM
- MICa: MIC of the antibiotic (P. aeruginosa AUMC-Pa-5): >128/128
- MICac: MIC of the antibiotic in the combination (P. aeruginosa AUMC-Pa-5): >128/128
- MICa: MIC of the antibiotic (P. aeruginosa HM-214; [3]): >128/128
- MICac: MIC of the antibiotic in the combination (P. aeruginosa HM-214; [6]): >128/128
- MICa: MIC of the antibiotic (P. aeruginosa NR-31041; strain NR-31041, antibiotic alone, unit not given): >128/128
- MICac: MIC of the antibiotic in the combination (P. aeruginosa NR-31041; strain NR-31041, with D-11 at MICbc 4, unit not given): >128/128
- MICa: MIC of the antibiotic (P. aeruginosa PAK): >128/128
- MICac: MIC of the antibiotic in the combination (P. aeruginosa PAK): >128/128
- MICa: MIC of the antibiotic (P. aeruginosa ATCC27853): >128/128
- MICac: MIC of the antibiotic in the combination (P. aeruginosa ATCC27853): >128/128
- MICa: MIC of the antibiotic (P. aeruginosa PA14): >128/128
- MICac: MIC of the antibiotic in the combination (P. aeruginosa PA14): >128/128
- MICa: MIC of the antibiotic (P. aeruginosa NR-31040; strain NR-31040, antibiotic alone, unit not given): >128/128
- MICac: MIC of the antibiotic in the combination (P. aeruginosa NR-31040; [5]): >128/128
- MICac: MIC of the antibiotic in the combination (P. aeruginosa AUMC-Pa-1; [6]): 64
- MICa: MIC of the antibiotic (P. aeruginosa AUMC-Pa-2; [3]): >128/128
- MICac: MIC of the antibiotic in the combination (P. aeruginosa AUMC-Pa-2; [6]): >128/128
Molecule: Spiramycin
- FICI (P. aeruginosa PAO1; spiramycin + D-11, 256 used for the calculation): 0.625
- FICI (P. aeruginosa ATCC27853): 0.625
